Assay [1] relates to adult Fischer 344 male rat brains. The assay is described as follows: Adult brain tissue reaction to PNPX loaded HFMs implanted into rat brain (immunohistochemistry). It counts as in vivo. Particulars: constant release into local brain tissue, compared to blank control HFM; anti-GFAP and anti-CSPG staining; FIG. 6. From the text: Following adult central nervous system (CNS) injury, resident cells and blood-derived inflammatory cells become activated and migrate to the lesion site, eventually form a dense glial scar that is believed to play a significant role in inhibiting CNS regeneration. The inhibitory nature of the glial scar is due not only to the existence of inflammatory cell types, but also to the ECM molecules that are derived from them. […] Blocking CSPG biosynthesis may be a potential means to ameliorate CNS glial scar formation. […] CSPG inhibitor 4-nitrophenyl-β-D-xylopyranoside (PNPX) was incorporated into the HFMs during the fabrication process. The inflammatory responses of adult brain tissue to the HFMs with or without PNPX were evaluated and compared.
Polyacrylonitrile/polyvinylchloride copolymer (PAN/PVC) was used as a model non-degradable polymer as a carrier for PNPX delivery, and poly(DL-Lactide-co-glycolide) (PLGA) 50/50 copolymers was employed as a model degradable polymer for PNPX delivery. Polymer-PNPX was dissolved in dimethyl sulfoxide (DMSO). 1% phthalized-chitosan was added into the solution to enhance the PNPX loading efficiency. PNPX loaded HFMs were fabricated using a wet phase-inversion technique. PNPX loading efficiency and releasing profiles were studied in vitro using HPLC. […]

Assay [2] has as its system Human umbilical cord stem cells. The experiment in a line: Survival of stem cells transplanted into brain tissue after exposure to a hypoxia simulating agent. It counts as in vivo. Particulars: cells exposed to 50 uM/ml for 12 hours before transplantation into brain tissue; vs untreated group. The procedure:
Human umbilical cord stem cells were exposed to 50 uM/ml ethyl 3,4-dihydroxybenzoate for 12 hours before transplanted into brain tissue to improve their tolerance to hypoxia condition at the injection site after transplantation procedure. Ethyl 3,4-dihydroxybenzoate can increase glucose uptake and glycolytic metabolism of cells. Increased glucose uptake and glycolytic metabolism is an important compensatory mechanism that allows ATP production to be maintained. Such an approach also increases resistance of the transplanted cells to metabolic poison. The resulting transplanted cells will be adjusted to a deficiency of oxygen and, thus, more resistant to transplantation procedures. The survival rate of the transplanted cells is higher for ethyl 3,4-dihydroxybenzoate treated group than that for untreated group.

SMILES strings stand for the structures.

On to `O=[N+]([O-])c1ccc(O[C@@H]2OC[C@@H](O)[C@H](O)[C@H]2O)cc1` [PNPX, 4-nitrophenyl-β-D-xylopyranoside], for which the “glial scarring response in the vicinity of the PNPX loaded HFM” value in assay [1] is on record as “significantly (P<0.05) suppressed”. Consider `CCOC(=O)c1ccc(O)c(O)c1` [ethyl 3,4-dihydroxybenzoate], for which, in assay [2], the “survival rate of the transplanted cells” value is “higher”.

The values are drawn from patent US20060257368A1, “Devices and methods for improved viability of cells” (Clemson University, priority 2005, published 2006).
